Tested on: SK-MEL-5 TRPM1-promoter luciferase reporter, 24 h
Assay: TRPM1 promoter luciferase signal decrease, dose response, MITF inhibitor project, cell-based, SK-MEL-5, cherry-picked, set 4 (AID 493102);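 note: actives lower the luciferase signal so the potency reflects inhibition of reporter expression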

Row | SMILES | AC50 [µM]
1 | Cc1ccn2c(Nc3ccccc3)c(-c3ccccn3)nc2c1 | 9.31
2 | COc1cc(CNC2CCCC2)cc(Cl)c1OCc1ccccc1Cl | 17.7
3 | O=C(C[n+]1cccc2ccccc21)c1ccc([N+](=O)[O-])cc1 | 6.21
4 | Cc1onc(-c2ccccc2)c1C(=O)N/N=C/c1ccc([N+](=O)[O-])s1 | 5.35
5 | COc1ccc(C(=O)/C=C/Nc2ccccn2)cc1 | 3.72
6 | CCOc1ccc(-n2c(-c3ccc(Br)cc3)c[n+]3c2CCCCC3)cc1 | 3.87
7 | COc1ccc(-c2c[n+](CC(=O)OC3CC(C)CCC3C(C)C)c3n2CCC3)cc1 (configuration not stated) | 4.87
8 | N#C/C(=C(/O)c1ccc([N+](=O)[O-])o1)c1nc2ccccc2[nH]1 | 3.8
9 | O=C(NCc1ccccc1)C(=O)Nc1cccc(C(=O)O)c1 | 4.85
10 | COc1ccc2cc3cc(C(=O)NCCc4ccc(OC)c(OC)c4)oc3nc2c1 | 16.2
11 | COC1=C(Nc2ccc(O)cc2)C(=O)c2ccccc2C1=O | 5.14
12 | CC1CCCC(NCC(O)COC(c2ccc(F)cc2)c2ccc(F)cc2)C1C (configuration not stated) | 10.8
13 | CN1CCN(C2=C(NS(=O)(=O)c3ccccc3)C(=O)c3ccccc3C2=O)CC1 | 6.9
14 | CN1CCN(c2ccc(NC(=S)NC(=O)c3cccc4ccccc34)cc2)CC1 | 9
15 | O=C(COC(=O)CCN1C(=O)/C(=C\C=C\c2ccccc2)SC1=S)Nc1cc(F)ccc1F | 7.49
16 | Cc1ccc(C(=O)N/N=C/c2ccc([N+](=O)[O-])s2)cc1 | 2.2
17 | CC(=O)Nc1nc(C)c(-c2csc(Nc3cccc(C(C)=O)c3)n2)s1 | 8.38
18 | CN(C)c1ccc(-n2cccc2/C=C/[N+](=O)[O-])cc1 | 10.2
19 | CCn1c(=O)c([N+](=O)[O-])c(Cl)c2ccccc21 | 7.2
20 | O=C1c2cc(F)ccc2-n2c1nc1ccccc1c2=O | 1.05
21 | Cc1cc(C)cc(N2C(=O)NC(=O)/C(=C\c3cccn3-c3ccccc3)C2=O)c1 | 13.8
22 | Cc1ccc(NC(=O)c2cc3ccccc3oc2=O)cc1S(=O)(=O)N(C)C | 0.03
23 | Cc1ccccc1-n1ncc2c([N+](=O)[O-])cc([N+](=O)[O-])cc21 | 8.7

Row | SMILES | AC50 [µM]
24 | Cc1ccc(C)c(NC(=O)/C(C#N)=C/c2cn(CC(=O)NCc3ccco3)c3ccccc23)c1 | 6.56
25 | CC(NC(=O)c1ccc([N+](=O)[O-])o1)C12CC3CC(CC(C3)C1)C2 (configuration not stated) | 15.1
26 | CCCCN(C)CC(O)Cn1cc(/C=C/C(=O)c2cccs2)c2ccccc21 (configuration not stated) | 14.3
27 | COc1cccc2sc(N3CCN(C(=O)c4ccc([N+](=O)[O-])o4)CC3)nc12 | 7.03
28 | Cc1cc(C(=O)N/N=C/c2ccc([N+](=O)[O-])o2)c(C)o1 | 4.79
29 | NCCCNc1nc(N)c([N+](=O)[O-])c(NC2CCCCC2)n1 | 6.36
30 | COc1cc2c(c(OC)c1OC)-c1ccc(OC)c(=O)cc1C(NC(C)=O)CC2 (configuration not stated) | 0.056
31 | O=C1C(Nc2ccccc2)=C(N2CCCCC2)C(=O)c2ccccc21 | 6.67
32 | Cc1ccc(C(=O)Nc2cnc3ccccc3c2)cc1 | 1.15
33 | CC1(C)CC(NC(=O)c2ccc(Cl)c(S(=O)(=O)N(Cc3ccccc3)c3ccccc3)c2)CC(C)(C)N1 | 10.3
34 | O=C(CCl)N(c1ccccc1)c1c[nH]c2ccccc12 | 5.08
35 | O=C(/C=C/c1ccc([N+](=O)[O-])s1)N1CCCC1 | 9.86
36 | Cc1cc(C(=O)CN2C(=O)c3ccccc3S2(=O)=O)c(C)n1-c1ccccc1 | 3.45
37 | OCCNc1c2ccccc2nc2c(F)c(F)c(F)c(F)c12 | 4.14
38 | CCOC(=O)Cn1c(=NC(=O)c2ccc([N+](=O)[O-])s2)sc2ccccc21 | 3.5
39 | O=C(Nc1ccccc1N1CCOCC1)c1ccc([N+](=O)[O-])o1 | 11.9
40 | COc1cc([N+](=O)[O-])cc(/C=N/NC(=O)c2ccc(NC(=O)c3ccc(C)cc3)cc2)c1O | 1.55
41 | Cn1nnnc1Sc1ncnc2scc(-c3ccsc3)c12 | 7.95
42 | COc1ccc(NC(C)C(=O)N/N=C/c2ccc([N+](=O)[O-])s2)cc1 (configuration not stated) | 15.8
43 | CC(=O)NC1=C(N(C)C2CCS(=O)(=O)C2)C(=O)c2ccccc2C1=O (configuration not stated) | 21.2
44 | Cn1cc(C(=O)CCl)c2ccccc21 | 8.48
45 | O=C(N/N=C/c1cc([N+](=O)[O-])ccc1N1CCNCC1)c1ccc([N+](=O)[O-])cc1 | 8.19
46 | CCC(=O)NC(c1ccccc1OC)c1ccc2cccnc2c1O (configuration not stated) | 6.7

Row | SMILES | AC50 [µM]
47 | CC(C)=NOc1cc(NC(=O)CCl)cc([N+](=O)[O-])c1 | 6.18
48 | Cc1ccc2c(c1)COc1c3ccc(C(=O)O)cc3nn1-2 | 2.23
49 | CCCNC(=O)COC(=O)c1ccccc1C(=O)c1ccc(Cl)c([N+](=O)[O-])c1 | 8.34
50 | CC(C)N=C(NS(=O)(=O)c1ccccc1)C(Cl)(Cl)Cl | 6.76
51 | CN(C)c1ccc(/C=C(\C#N)c2ccccn2)cc1 | 6.32
52 | COc1cccc(NC(=O)c2cc3c(=O)n4ccccc4nc3n(CC(C)C)c2=N)c1 | 7.02
53 | Cc1ccc(NC(=O)C2CCN(S(=O)(=O)c3c(C)noc3/C=C/c3ccco3)CC2)nc1 | 5.56
54 | COc1cc2c(c(OC)c1OC)-c1ccc(N(C)CC(OC)OC)c(=O)cc1[C@@H](NC(C)=O)CC2 | 2.04
55 | O=C(Nc1ccc(-c2nc3ncccc3o2)cc1)c1ccc([N+](=O)[O-])o1 | 3.63
56 | Cn1c(SC2=CS(=O)(=O)c3ccccc32)nc2ccccc21 | 6.72
57 | O=C1C(Cl)=C(Nc2ccccc2)C(=O)c2ccccc21 | 2.88
58 | CCCCC[n+]1ccn(C2=C([O-])c3ccccc3C(=O)/C2=N\S(=O)(=O)c2ccccc2)c1 | 5.9
59 | O=C(CCl)Nc1cccc(S(=O)(=O)N2CCCCCC2)c1 | 11.8
60 | Cn1cccc1-c1cc(C(=O)N/N=C/c2cc(Br)ccc2O)[nH]n1 | 5.25
61 | CCOc1cc(/C=C(/C#N)c2ccc(Cl)cc2)cc(Cl)c1OCC(=O)O | 5.61
62 | COc1ccccc1NC(=O)c1nc(S(=O)(=O)Cc2ccccc2)ncc1Cl | 8.91
63 | O=C(Nc1cc(-c2nc3ncccc3o2)ccc1Cl)c1ccc([N+](=O)[O-])o1 | 5.76
64 | COc1ccc(C(=O)/C=C/C(=O)N(CC(=O)NC2CCCCC2)Cc2cccs2)c(O)c1 | 5.53
65 | Cc1cc(C)cc(N2C(=O)NC(=O)/C(=C\C=C\c3ccco3)C2=O)c1 | 4.88
66 | COC(=O)c1ccc2c(c1O)C(=O)c1ccccc1C2=O | 1.61
67 | Cn1cc([N+](=O)[O-])c(C(=O)Nc2nc(-c3ccc(Cl)cc3)cs2)n1 | 10.5
68 | N#CC(C#N)=C1C=CC=CN1/C(=C\c1ccco1)C(=O)c1ccc(Cl)cc1 | 6.85
69 | CC(=O)c1c(C)oc2c1C(=O)c1ccccc1C2=O | 6.68

Row | SMILES | AC50 [µM]
70 | Cc1ccccc1OCc1n(CC(=O)OC2CC(C)CCC2C(C)C)c2ccccc2[n+]1C (configuration not stated) | 7.52
71 | Cc1cc(C(=O)COc2cccnc2[N+](=O)[O-])c(C)n1-c1ccccc1 | 1.48
72 | Cn1c(SCC(=O)N/N=C/c2ccc([N+](=O)[O-])s2)nnc1-c1ccccc1 | 4.28
73 | CCN(CC)CCNC(=O)c1ccc(NC(=O)c2cccc(S(=O)(=O)N3c4ccccc4CC3C)c2)cc1 (configuration not stated) | 10.5
74 | CCn1c(/C=C/Nc2ccccc2)[n+](CC)c2cc(Cl)c(Cl)cc21 | 14.5
75 | O=C(Nc1ccc(N2CCOCC2)cc1)c1cnsn1 | 3.05
76 | O=C(CCl)N(c1ccccc1)C1CCS(=O)(=O)C1 (configuration not stated) | 9.35
77 | O=C1NC(=O)C(=Cc2ccc(-c3cc(Cl)ccc3[N+](=O)[O-])o2)C(=O)N1 | 17.2
78 | COC(=O)C1=C(C)N(Cc2ccccc2)C(=NCCc2cccnc2)N[C@H]1c1ccc(Br)cc1 | 17.8
79 | CCCN(CCC)C1=CC(=[N+]2CCCC2)CC(C)(C)C1 | 2.02
80 | CCCCCn1c(=O)c(C(=O)Nc2cnccn2)c(O)c2ccccc21 | 5.93
81 | O=C(CCl)Nc1cccc(S(=O)(=O)NC2=NCCCCC2)c1 | 7.85
82 | O=C(O)/C=C/C(=O)c1ccc2c(c1)CCc1ccccc1-2 | 15
83 | Cc1ccc(S(=O)(=O)N2CCCCC2)cc1NC(=O)Cn1ncc(Cl)c(Cl)c1=O | 6.21
84 | O=C(CCl)N1N=C(c2ccco2)CC1c1cccs1 (configuration not stated) | 7.84
85 | COc1cccc(C(=O)Nc2ccc3c(cc2=O)[C@@H](NC(C)=O)CCc2cc(OC)c(OC)c(OC)c2-3)c1 | 8.43
86 | O=C1NC(=O)N(Cc2ccc(F)cc2)C(=O)/C1=C\C=C\c1ccco1 | 6.63
87 | CCOc1ccc(-c2noc(CCC(=O)O)n2)cc1 | 2.61
88 | CC1CCCCC1NC(=O)/C(C#N)=C/C=C/c1ccccc1[N+](=O)[O-] (configuration not stated) | 7.92
89 | C=CCC(Nc1ccccc1)C12C=CC(O1)C(C(=O)OC)=C2C(=O)OC (configuration not stated) | 11.7
90 | Cc1ccc(-c2c[n+](Cc3cccc(Cl)c3)c3n2CCC3)cc1 | 12.2
91 | CCOC(=O)Cn1cc([N+](=O)[O-])nc1[N+](=O)[O-] | 29.5
92 | COc1cc(SC)ccc1C(=O)Nc1nc(C)cs1 | 4.81

Row | SMILES | AC50 [µM]
93 | CCOc1ccccc1NC(=O)C(=O)N/N=C/c1cc(Br)ccc1O | 3.34
94 | CCCCn1c(=N)n(CC(=O)c2ccc(Br)s2)c2ccccc21 | 7.45
95 | CN(C)CCNC(=O)/C(=C/c1ccc(-c2ccc(Cl)cc2Cl)o1)NC(=O)c1ccccc1 | 4.97
96 | CC1CN(C(=O)CCC(=O)NCCCN2CCC(Cc3ccccc3)CC2)c2cc(Cl)ccc2O1 (configuration not stated) | 16.2
97 | COc1ccccc1NS(=O)(=O)c1cc(NC(=O)c2ccc(Cl)nc2)ccc1Cl | 11.3
98 | COc1cccc(NC(=O)Nc2cccc(C(=O)O)c2)c1 | 2.37
99 | O=C(COc1ccccc1)N/N=C/c1ccc([N+](=O)[O-])o1 | 21.5
100 | CC(C)(C)c1ccc(C(=O)N2CCCCCC2=O)cc1 | 1.12
101 | Cc1ccc(-c2cn3cc(C)ccc3n2)cc1 | 2.03
102 | CC(=NNc1nc2ccccc2o1)c1cc2ccccc2cn1 | 0.175
103 | Cc1ccc(C)c(S(=O)(=O)N2CCN(Cc3ccc(O)c4ncccc34)CC2)c1 | 4.44
104 | O=C(O)c1ccc(Nc2nc3c(s2)CCCC3)cc1 | 6.49
105 | NCCN1C(=O)S/C(=C\c2ccc3c(c2)OCO3)C1=O | 22.3
106 | Cc1ccc(NC(=O)CCC(=O)N/N=C/c2ccc([N+](=O)[O-])o2)cc1C | 6.25
107 | C=CCN=C1NN=C(c2ccc3c(c2)OCCO3)CS1 | 3.37
108 | N#CC1=C(c2ccccc2)/C(=C/c2ccccc2)OC1=O | 4.25
109 | Cc1cc(C)nc(S/C=C/C(=O)c2ccccc2F)n1 | 5.38
110 | Cc1scc(C(=O)N/N=C/c2ccc([N+](=O)[O-])o2)c1C | 2.19
111 | Cc1cc(NCCCn2ccnc2)n2ncc(-c3ccccc3)c2n1 | 11
112 | O=C(N/N=C/c1ccc([N+](=O)[O-])s1)c1cccc(Br)c1 | 4.83
